The results in this text go back to patent US20250057910A1, “Application of Polypeptide in Preparation of Product for Preventing or Treating Skin Injury Diseases” (Sichuan Gooddoctor Panxi Pharmaceutical Co., Ltd., priority 2021, published 2025).

Ends that are not written are not given here.

For assay [1], the system named is HaCaT cells (human immortalized keratinocytes). Nature of the assay: Proliferation of HaCaT cells (CCK8). The note with it: 72 h, 1640 medium with 1% serum, FIG. 1. Format: cell-based. As for the experimental part:
Experimental method: Human immortalized keratinocytes (HaCAT cells) were adjusted to a concentration of 1.0*10^5 to 5.0*10^5/mL for passaging, and cultured at 37° C. and 5% CO2 for 24-36 hours for the biological activity detection. The cells were digested with 0.25% pancreatin for 5 min, a 1640 whole blood medium with more than 1 times the volume of pancreatin was added to stop digestion, a cell suspension was collected and centrifuged at 1000 RPM for 3 min, the supernatant was discarded, 2 mL of 1640 whole blood medium was added to resuspend the cells, 20 uL cell suspension was taken, stained with AOPI, and then the concentration of cells in the suspension was detected with a cell counter, the cell suspension was formulated with 1640 medium with 10% serum to a concentration of 5*10^4/mL and seeded into 96-well cell culture plates with 100 μL per well, i.e. 5000 cells/well, and cultured overnight at 37° C. and 5% CO2.
After 24 hours, the original culture medium was discarded and 100 μL of each of different concentrations of polypeptide solutions formulated with 1640 culture medium with 1% serum was added. […] The mixtures were cultured at 37° C. and 5% CO2 for 72 h, and the proliferation of the HaCaT cell line was detected by the CCK8 kit.

The test system of assay [2] is Balb-3T3 cells (mouse embryo fibroblasts). Kind of assay: Proliferation of Balb-3T3 cells (CCK-8). The assay is classed as cell-based. The note with it: 48 hours, 2.5% FBS maintenance medium, FIG. 3. The method, then: Experimental method: Mouse embryo fibroblasts (Balb-3T3 cells) were cultured in 10% serum medium at 37° C. and 5% CO2, the culture fluid was changed every 1-2 days, and the cell concentration was controlled to be 4*10^6 cells/mL for passaging. The cells were collected and prepared into a concentration of 3* 10^4 cells/mL with 2.5% FBS maintenance medium, seeded into a 96-well cell culture plate with 100 uL per well, i.e., 3000 cells/well, and cultured at 37° C. and 5% CO2 to be adherent.
The polypeptide was dissolved in 2.5% FBS maintenance medium and prepared into a stock solution with a concentration of 1 mg/mL. The polypeptide stock solution was prepared with 2.5% FBS maintenance medium to test concentrations as the experimental groups; in the same manner, recombinant human basic fibroblast growth factor FGF (50 ng/mL), and recombinant human platelet derived growth factor PDGF-BB (30 ng/mL) were prepared and added as positive control; and for the blank control group, the same volume of 2.5% FBS maintenance medium was added. For all the groups, 5 duplicate wells were incubated at 37° C. and 5% CO2 for 48 hours. CCK-8 was used to detect cell proliferation: the serum-free medium containing 10% CCK-8 was added to each well, and absorbances were measured at 450 nm by microplate reader after incubation in an incubator for 2 hours.

Assay [3] concerns SD rats. Kind of assay: Healing of full-layer skin defect wound in SD rats. Format: in vivo, rat. The conditions noted are these: for Wound healing rate: SD rats, topical once a day, polypeptide 50 μg/cm^2, comparative polypeptide 1 41.90 μg/cm^2, comparative polypeptide 2 52.66 μg/cm^2, Mean ± SD, n = 8. The method, then:
Experimental animals: SD male rats, SPF grade, 6 weeks old, weighing 180-220 g, from Beijing Vital River Laboratory Animal Technology Co., Ltd., with the experimental animal quality certification number of NO.110011220109610345, and the experimental animal use license number of SCXK (Beijing) 2021-0011.
Experimental method: SD rats were randomly divided into […] based on the body weight with 8 animals in each group, namely, vehicle group, the polypeptide group (50 μg/cm^2), comparative polypeptide 1 group (41.90 μg/cm^2) and comparative polypeptide 2 group (52.66 μg/cm^2). The amino acid sequence of comparative polypeptide 1 is Glu-Pro-Val-Pro-Leu; and the amino acid sequence of comparative polypeptide 2 is Pro-Ala-Ala-Glu-Pro-Val-Pro-Leu-Val-Lys-Gln-Glu.
After each experimental rat was anesthetized by intraperitoneal injection of 2% pentobarbital sodium (0.2 mL/100 g), a 2 cm^2 full-layer skin defect wound was prepared at each of both sides of the back spine. After hemostasis of the wound, the corresponding drug was administered at the wound locally by group. Each group was administered once a day, with a dosed volume of 72 μL/wound each time, for 14 consecutive days. After the administration, the wound was covered with a sterile vaseline gauze (5 cm*5 cm), and bandaged with multi-layer sterile gauzes. After the wound surgery, the wound was photographed, and the wound area was recorded as the baseline value (the wound was recorded as Day0). During the administration period, the areas of the wounds were photographed and measured 3 times a week, and the healing was observed.

With PAAEPVPL [polypeptide], the “Proliferation-promoting effect on the HaCaT cell line” value in assay [1] is listed as “significant effect of promoting proliferation”. For the same sequence, the “Proliferation-promoting effect on the Balb-3T3 cell line” value in assay [2] is reported as “significant effect of promoting proliferation”. The “Healing rate of full-layer skin defect wound (statement in words)” value in assay [3] (50 μg/cm^2, days 3-10 after surgery, vs vehicle group) is given as “higher healing rate with a significant difference”. Also, the Wound healing rate is listed as 0.00 ± 0.00% in assay [3] (Day 0 (baseline)); 29.70 ± 19.21 % in assay [3] (Day 3); 52.21 ± 11.54 % in assay [3] (Day 5); 74.12 ± 5.95 % in assay [3] (Day 7); 94.55 ± 2.40 % in assay [3] (Day 10).
